Test results taken from US9700051B2, “Use of squalamine or analogue as a disinfecting agent” (ASSISTANCE PUBLIQUE—HOPITAUX DE MARSEILLE, priority 2012, dated 2017).
Values after ≈ are worked out from the molar mass of the structure shown. Where two headings read alike, the source gives them in different places.

What was measured:
[1] = system: Candida albicans DSM 1386 (ATCC 10231); assay: Disinfecting antifungal activity on infected nebulizer as per standard FR-EN 1275; type: cell-based; conditions: aqueous solution 0.5 g/l, 1 h
Description: (§1) In the different tests below the strains used were Pseudomonas aeruginosa DSM 939 (ATCC 15442), Staphylococcus aureus DSM 799 (ATCC 6538), Candida albicans DSM 1386 (ATCC 10231) and Aspergillus niger ATCC 16404.
(§2) Nebulizer contamination with fungi was obtained in vitro by soaking the inner part of nebulizers (Pari LC, SPRINT SP, Pari, Germany) in 1·10^7 fungi suspension at 5·10^7 cfu/mL prepared in Sabouraud broth. After incubation the nebulizer was soaked in sterile water containing squalamine at the determined concentrations in relation to the fungal strains under consideration (i.e. 0.5 g/L for C. albicans (1 hour soaking) and 2 g/l for A. niger (6 h soaking). The nebulizer was then rinsed with two successive solutions of sterile water. The fungal count was performed on the second wash bath. The count of fungal colonies was performed on malt extract agar-agar (48 h).

[2] = system: Staphylococcus aureus DSM 799 (ATCC 6538); assay: Disinfecting antibacterial action on infected nebulizer as per standard FR-EN 1040; type: cell-based; conditions: aqueous solution 0.5 g/l, within 1 hour
Description: as §1
(§3) The microbial contamination of nebulizers was obtained in vitro by soaking the inner part of nebulizers (Pari LC, SPRINT SP, Pari, Germany) in a bacterial suspension prepared in Mueller Hinton broth containing 1·10^8 to 5·10^8 cfu/mL of bacteria. Disinfection was performed by soaking this same part in a solution of sterile water containing squalamine for 1 h at a determined concentration of 0.5 g/L for the bacteria under consideration (S. aureus or P. aeruginosa). The nebulizer was then rinsed with two successive sterile water solutions. The bacterial count was performed on the second wash bath on Tryptone Soya Agar (24 h).

[3] = system: Pseudomonas aeruginosa DSM 939 (ATCC 15442); assay: as above; type: cell-based; conditions: aqueous solution 0.5 g/l, within 1 hour
Description: as §1, §3

[4] = system: Aspergillus niger ATCC 16404; assay: Disinfecting antifungal activity on infected nebulizer as per standard FR-EN 1275; type: cell-based; conditions: for log reduction of viable spore cells of A. Niger: 2 g/l, 6 hours; for log reduction in viable cells of A. niger: aqueous solution 0.5 g/l, 1 h
Description: as §1
as §2, with “0.5 g/L for C. albicans (1 hour soaking) and 2 g/l for A. niger (6 h soaking).” left out

S. aureus DSM 799 [5] = assay: In vitro model of nebulizer disinfection with aqueous solution; type: cell-based, Staphylococcus aureus; conditions: for log reduction for bacteria (S. aureus): 80 mg/ml; for log reduction for bacteria (S. aureus) / log reduction in viable cells of S. aureus: 20 minutes; for log reduction in viable cells of S. aureus: 0.5 g/l; for dose needed to ensure nebulizer disinfection: S. aureus DSM 799
From the text: as §1
(§4) Nebulizers of Pari LC type were infected with bacteria (S. aureus and P. aeruginosa) via a suspension calibrated at 10^8 cfu/ml, and with fungi (C. albicans and A. niger) via a suspension calibrated at 10^7 cfu/ml. These nebulizers were then disinfected by soaking in a squalamine solution for 20 min, Glutaraldehyde and korsolex (peracetic acid) being used as inhibition control.
(§5) The microbial contamination of the nebulizer was obtained in vitro by soaking the inner part of the nebulizer (Pari LC, SPRINT SP, Pari, Germany) in a bacterial suspension prepared in Mueller Hinton broth containing 1·10^8 to 5·10^8 cfu/ml of bacteria (NF EN 1040, 1997) for 20 minutes. Disinfection was obtained by soaking this same part in a sterile water solution containing squalamine or ASD 2 for […] at the determined concentration in relation to the bacteria under consideration. For the fungi, suspensions of 1·10^7 to 5·10^7 cfu/ml (NF EN 1275, 1997) were prepared in Sabouraud broth and after incubation the nebulizer was soaked in sterile water containing squalamine or ASD 2. The nebulizer was then rinsed with two successive solutions of sterile water. The bacterial or fungal count was performed on the second wash bath. The counting of bacterial or fungal colonies was conducted on Tryptone Soya Agar for 24 hours for bacterial growth and on malt extract agar-agar for fungi at 37° C. for 48 hours.
(§6) The bactericidal and fungicidal test was performed three times in independent experiments and each bacterium and mould was evaluated separately. The concentration of squalamine and ASD 2 was increased until the required bactericidal and fungicidal activity was obtained. The disinfection time was set at 20 minutes for the first case and subsequently extended to 6 hours for A. Niger.

A. niger ATCC 16404 [6] = assay: Minimum Inhibitory Concentration (MIC); type: cell-based; conditions: Aspergillus niger, ATCC16404
From the text: as §1
(§7) 4.2.1) The nebulizers used were infected with different bacterial suspensions (S. aureus and P. aeruginosa) calibrated at 10^8 cfu/ml or fungal suspensions (C. albicans and A. niger) calibrated at 10^7 cfu/ml. In a preliminary set of experiments, values of Minimum Inhibitory Concentration (MIC) and Time Kill of squalamine and ASD 2 were determined against chosen reference bacteria and fungi (MIC only). […] A time of 20 minutes was defined to carry out nebulizer disinfection using squalamine whilst korsolex PAA and the 2% solution of glutaraldehyde were used for a time of 15 minutes following the manufacturers' instructions to obtain disinfecting properties. At a first attempt, it was able to be shown that the use of a dose of 80 mg/ml squalamine or ASD-2 for 20 minutes leads to a 2- and 3-log reduction for bacteria whilst a 2-log reduction for C. albicans was only obtained when using a concentration of squalamine or ASD-2 of 190 mg/ml. […] Nonetheless, squalamine and ASD 2 used at a concentration stronger than 0.5 g/l are capable of obtaining a 5-log10 reduction in viable cells of bacteria such as S. aureus, P. aeruginosa and a 4-log10 reduction for fungi such as C. albicans with a cycle of 20 min (FIG. 2A). On the other hand, for A. niger, the concentration enabling a fungicidal effect to be obtained (i.e. not only fungistatic but additionally with spore eradication) was higher than for the bacteria and over a longer time (2 g/l for 6 hours) (FIG. 2B).

C. albicans DSM 1386 [7] = assay: Minimum Inhibitory Concentration (MIC); type: cell-based; conditions: Candida albicans, DSM1386
From the text: as §1, §7

P. aeruginosa DSM 939 [8] = assay: Minimum Inhibitory Concentration (MIC); type: cell-based; conditions: Pseudomonas aeruginosa, DSM939
From the text: as §1, §7

S. aureus DSM 799 [9] = assay: Minimum Inhibitory Concentration (MIC); type: cell-based; conditions: Staphylococcus aureus, DSM799
From the text: as §1, §7

C. albicans DSM 1386 [10] = assay: In vitro model of nebulizer disinfection with aqueous solution; type: cell-based, Candida albicans; conditions: for log reduction for C. albicans: 190 mg/ml; for log reduction in viable cells of C. albicans: 0.5 g/l, 20 minutes; for dose needed to ensure nebulizer disinfection: C. albicans DSM 1386
From the text: as §1, §4, §5, §6

A. niger ATCC 16404 [11] = assay: as above; type: cell-based, Aspergillus niger; conditions: for log reduction in viable cells of A. niger: 2 g/l, within 6 hours; for concentration enabling a fungicidal effect (with spore eradication) on A. niger: 6 hours; for dose needed to ensure nebulizer disinfection: A. niger ATCC 16404; for decrease for A. Niger: first attempt, 80 to 190 mg/ml, 20 minutes
From the text: as §1, §4, §5, §6

P. aeruginosa DSM 939 [12] = assay: as above; type: cell-based, Pseudomonas aeruginosa; conditions: for log reduction for bacteria (P. aeruginosa): 80 mg/ml; for log reduction for bacteria (P. aeruginosa) / log reduction in viable cells of P. aeruginosa: 20 minutes; for log reduction in viable cells of P. aeruginosa: 0.5 g/l; for dose needed to ensure nebulizer disinfection: P. aeruginosa DSM 939
From the text: as §1, §4, §5, §6

spores of A. Niger = conditions: acid glutaraldehyde 0.5%; within 100 minutes; cited from earlier work
A. niger = conditions: in vitro, within 24 hours; cited from earlier work
[13] = Cutaneous toxicity on the backs of shaven mice; type: in vivo; conditions: concentrations in aqueous solution of 2 000
From the text: Cutaneous toxicity was examined over a period of 15 days by applying a squalamine ointment onto the backs of shaven mice (batch of 10 mice).

S. aureus = conditions: topical lipophilic formulation, 0.5 to 5 mg/ml, 10^6 cfu/ml, cited from earlier work
[14] = Effect on plastic or metallic material (corrosion)

CC(C)CCC[C@@H](C)[C@H]1CCC2C3C(CC[C@@]21C)[C@@]1(C)CC[C@H](O)CC1C[C@@H]3NCCCCN (stereo partly drawn) [ASD 2]
log reduction in viable cells of C. albicans [1]: 6 log
log reduction of viable cells of S. aureus [2]: 8 log
log reduction of viable cells of P. aeruginosa [3]: 8 log
log reduction of viable spore cells of A. Niger [4]: 4 log
log reduction in viable cells of A. niger [4]: 6 log
log reduction for bacteria (S. aureus) (S. aureus DSM 799 [5]): 2 log
log reduction in viable cells of S. aureus (S. aureus DSM 799 [5]): 5 log
dose needed to ensure nebulizer disinfection (S. aureus DSM 799 [5]): 210 mg/L
MIC (A. niger ATCC 16404 [6]): 8 µg/mL (≈ 16.8 µM)
MIC (C. albicans DSM 1386 [7]): 8 µg/mL (≈ 16.8 µM)
MIC (P. aeruginosa DSM 939 [8]): 8 µg/mL (≈ 16.8 µM)
MIC (S. aureus DSM 799 [9]): 2 µg/mL (≈ 4.21 µM)
log reduction for C. albicans (C. albicans DSM 1386 [10]): 2 log
log reduction in viable cells of C. albicans (C. albicans DSM 1386 [10]): 4 log
dose needed to ensure nebulizer disinfection (C. albicans DSM 1386 [10]): 500 mg/L
log reduction in viable cells of A. niger (A. niger ATCC 16404 [11]): 4 log
concentration enabling a fungicidal effect (with spore eradication) on A. niger (A. niger ATCC 16404 [11]): 2 g/L
dose needed to ensure nebulizer disinfection (A. niger ATCC 16404 [11]): 2000 mg/L
decrease for A. Niger (A. niger ATCC 16404 [11]): no significant decrease
log reduction for bacteria (P. aeruginosa) (P. aeruginosa DSM 939 [12]): 3 log
log reduction in viable cells of P. aeruginosa (P. aeruginosa DSM 939 [12]): 5 log
dose needed to ensure nebulizer disinfection (P. aeruginosa DSM 939 [12]): 130 mg/L

O=CCCCC=O [acid glutaraldehyde, glutaraldehyde]
log reduction in the number of spores of A. Niger (spores of A. Niger): 1 log

CC(C)[C@@H](CC[C@@H](C)[C@H]1CCC2C3C(CC[C@@]21C)[C@@]1(C)CC[C@H](NCCCNCCCCN)CC1C[C@H]3O)OS(=O)(=O)O (stereo partly drawn) [squalamine]
log reduction in viable cells of C. albicans [1]: 6 log
log reduction of A. niger (A. niger): 4 log
log reduction of viable cells of S. aureus [2]: 8 log
log reduction of viable cells of P. aeruginosa [3]: 8 log
cutaneous toxicity [13]: do not cause cutaneous toxicity
log reduction of S. aureus (S. aureus; within 24 hours): 4 log
log reduction of S. aureus (S. aureus; within 48 hours): 5 log
log reduction of viable spore cells of A. Niger [4]: 4 log
log reduction in viable cells of A. niger [4]: 6 log
log reduction of spores ([4]; aqueous solution of 2 g/l): 4 log
log reduction for bacteria (S. aureus) (S. aureus DSM 799 [5]): 2 log
log reduction in viable cells of S. aureus (S. aureus DSM 799 [5]): 5 log
dose needed to ensure nebulizer disinfection (S. aureus DSM 799 [5]): 210 mg/L
MIC (A. niger ATCC 16404 [6]): 16 µg/mL (≈ 25.5 µM)
MIC (C. albicans DSM 1386 [7]): 16 µg/mL (≈ 25.5 µM)
MIC (P. aeruginosa DSM 939 [8]): 4 µg/mL (≈ 6.37 µM)
MIC (S. aureus DSM 799 [9]): 2 µg/mL (≈ 3.18 µM)
log reduction for C. albicans (C. albicans DSM 1386 [10]): 2 log
log reduction in viable cells of C. albicans (C. albicans DSM 1386 [10]): 4 log
dose needed to ensure nebulizer disinfection (C. albicans DSM 1386 [10]): 500 mg/L
log reduction in viable cells of A. niger (A. niger ATCC 16404 [11]): 4 log
concentration enabling a fungicidal effect (with spore eradication) on A. niger (A. niger ATCC 16404 [11]): 2 g/L
dose needed to ensure nebulizer disinfection (A. niger ATCC 16404 [11]): 2000 mg/L
decrease for A. Niger (A. niger ATCC 16404 [11]): no significant decrease
degradation of the equipment treated and/or in contact with the product [14]: do not induce any degradation
log reduction for bacteria (P. aeruginosa) (P. aeruginosa DSM 939 [12]): 3 log
log reduction in viable cells of P. aeruginosa (P. aeruginosa DSM 939 [12]): 5 log
dose needed to ensure nebulizer disinfection (P. aeruginosa DSM 939 [12]): 130 mg/L
